Like-named read-outs stand apart in the source and are kept apart here.
How the values were obtained:
EGFR wild type = molecular target: T1, EGFR wild type (Homo sapiens, UniProt P00533); assay: Inhibition of EGFR wild type biochemical enzymatic activity (HTRF); details: EGFR WT, 1 mM ATP, 1 h, room temperature, read-out: IC50 (nM) @WT
T1 construct: purchased Carna Bio
Procedure, shortened: (§1)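 For IC50 determination by four-parameter logistic fit, EDTA-quenched 1 h room-temperature reactions (1 mM ATP, 1 μM TK Substrate-biotin) were read by HTRF. The 665/615 nm emission ratio after 320 nm excitation served as the activity signal.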

EGFR L858R = molecular target: T2, EGFR L858R (Homo sapiens, UniProt P00533, L858R); assay: Inhibition of EGFR L858R biochemical enzymatic activity (HTRF); details: 1 mM ATP, 1 h, room temperature, read-out: IC50 (nM) @L858R
T2 construct: purchased Carna Bio
Procedure, shortened: as §1

EGFR L858R/T790M = molecular target: T3, EGFR L858R/T790M (Homo sapiens, UniProt P00533, L858R/T790M); assay: Inhibition of EGFR L858R/T790M biochemical enzymatic activity (HTRF); details: EGFR L858R-T790M, 1 mM ATP, 1 h, room temperature, read-out: IC50 (nM) @L858R-T790M
T3 construct: purchased Carna Bio
Procedure, shortened: as §1

EGFR Exon19Del = molecular target: T4, EGFR Exon19Del (Homo sapiens, UniProt P00533, DEL746-750); assay: Inhibition of EGFR Exon19Del biochemical enzymatic activity (HTRF); details: EGFR Del19, 1 mM ATP, 1 h, room temperature, read-out: IC50 @Del19
T4 construct: purchased Carna Bio
Procedure, shortened: as §1

EGFR Exon19Del/T790M = molecular target: T5, EGFR Exon19Del/T790M (Homo sapiens, UniProt P00533, DEL746-750/T790M); assay: Inhibition of EGFR Exon19Del/T790M biochemical enzymatic activity (HTRF); details: EGFR Del19-T790M, 1 mM ATP, 1 h, room temperature, read-out: IC50 (nM) @Del19-T790M
T5 construct: purchased Carna Bio
Procedure, shortened: as §1

EGFR[T790M/C797S/L858R] = molecular target: T6, EGFR[T790M/C797S/L858R] (Homo sapiens, UniProt P00533, C797S/L858R/T790M); assay: Inhibition of EGFR[T790M/C797S/L858R] biochemical enzymatic activity (HTRF); details: EGFR T790M-C797S-L858R, 1 mM ATP, 1 h, room temperature, read-out: IC50 (nM) @T790M- C797S - L858R
T6 construct: purchased Carna Bio
Procedure, shortened: as §1

[1] = molecular target: T7, EGFR[T790M/C797S/d746-750] (Homo sapiens, UniProt P00533, C797S/DEL746-750/T790M); assay: Inhibition of EGFR[T790M/C797S/d746-750] biochemical enzymatic activity (HTRF); details: EGFR T790M-C797S-Del19, 1 mM ATP, 1 h, room temperature, read-out: IC50 (nM) @T790M - C797S - Del19
T7 construct: purchased Carna Bio
Procedure, shortened: as §1

EGFR (d746-750 C797S) = molecular target: T8, EGFR (d746-750 C797S) (Homo sapiens, UniProt P00533, C797S/DEL746-750); assay: Inhibition of EGFR (d746-750 C797S) biochemical enzymatic activity (HTRF); details: EGFR Del19-C797S, 1 mM ATP, 1 h, room temperature, read-out: IC50 (nM) @Del19-C797S
T8 construct: purchased signalchem
Procedure, shortened: as §1

EGFR (C797S L858R) = molecular target: T9, EGFR (C797S L858R) (Homo sapiens, UniProt P00533, C797S/L858R); assay: Inhibition of EGFR (C797S L858R) biochemical enzymatic activity (HTRF); details: EGFR L858-C797S, 1 mM ATP, 1 h, room temperature, read-out: IC50 (nM) @L858-C797S
T9 construct: purchased signalchem
Procedure, shortened: as §1

[2] = system: Ba/F3 cells expressing EGFR mutations; assay: Cell proliferation assay, Ba/F3 cells expressing EGFR mutations (CellTiter-Glo, 72 hours); assay type: cell-based; details: CellTiter-Glo
Procedure, shortened: (§2)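 Seed Ba/F3 at 5000 cells/well and PC-9 at 500 cells/well (10% FBS RPMI1640); incubate overnight; add compound dilution series; read a G0 plate; incubate; read G3; GI50 from best-fit curve.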

PC-9 = assay: Cell proliferation assay, PC-9 cells (CellTiter-Glo, 72 hours); assay type: cell-based; details: PC9 cells, CellTiter-Glo, read-out: PC9 GI50
Procedure, shortened: as §2

A-431 = assay: Cell proliferation GI50, A-431 cells (Table 6); assay type: cell-based
[3] = BaF3 cells, EGFR DEL19-C797S, read-out: DEL19-C797S/BaF3 GI50
[4] = BaF3 cells, EGFR DEL19-T790-C797S, read-out: DEL19-T790-C797S/BaF3 GI50
[5] = BaF3 cells, EGFR L858R, read-out: L858R/BaF3 GI50
[6] = BaF3 cells, EGFR L858R-C797S, read-out: L858R-C797S/BaF3 GI50
[7] = BaF3 cells, EGFR L858R-T790-C797S, read-out: L858R-T790-C797S/BaF3 GI50
[8] = BaF3 cells, EGFR L858R-T790M, read-out: L858R-T790M/BaF3 GI50
[9] = EGFR DEL19-T790M, read-out: DEL19-T790M GI50
[10] = Homo sapiens, A-431, A-431 cells
[11] = Mus musculus, BaF3, 72 h, BaF3 cells, EGFR DEL19-C797S, read-out: DEL19-C797S/BaF3 GI50
[12] = Mus musculus, BaF3, 72 h, BaF3 cells, EGFR DEL19-T790-C797S, read-out: DEL19-T790-C797S/BaF3 GI50
[13] = Mus musculus, BaF3, 72 h, BaF3 cells, EGFR L858R, read-out: L858R/BaF3 GI50
[14] = Mus musculus, BaF3, 72 h, BaF3 cells, EGFR L858R-C797S, read-out: L858R-C797S/BaF3 GI50
[15] = Mus musculus, BaF3, 72 h, BaF3 cells, EGFR L858R-T790-C797S, read-out: L858R-T790-C797S/BaF3 GI50
[16] = Mus musculus, BaF3, 72 h, BaF3 cells, EGFR L858R-T790M, read-out: L858R-T790M/BaF3 GI50
[17] = Mus musculus, BaF3, 72 h, EGFR DEL19-T790M, read-out: DEL19-T790M GI50

T4 sequence (P00533 with tags, fused parts or gaps DEL746-750 limits assumed): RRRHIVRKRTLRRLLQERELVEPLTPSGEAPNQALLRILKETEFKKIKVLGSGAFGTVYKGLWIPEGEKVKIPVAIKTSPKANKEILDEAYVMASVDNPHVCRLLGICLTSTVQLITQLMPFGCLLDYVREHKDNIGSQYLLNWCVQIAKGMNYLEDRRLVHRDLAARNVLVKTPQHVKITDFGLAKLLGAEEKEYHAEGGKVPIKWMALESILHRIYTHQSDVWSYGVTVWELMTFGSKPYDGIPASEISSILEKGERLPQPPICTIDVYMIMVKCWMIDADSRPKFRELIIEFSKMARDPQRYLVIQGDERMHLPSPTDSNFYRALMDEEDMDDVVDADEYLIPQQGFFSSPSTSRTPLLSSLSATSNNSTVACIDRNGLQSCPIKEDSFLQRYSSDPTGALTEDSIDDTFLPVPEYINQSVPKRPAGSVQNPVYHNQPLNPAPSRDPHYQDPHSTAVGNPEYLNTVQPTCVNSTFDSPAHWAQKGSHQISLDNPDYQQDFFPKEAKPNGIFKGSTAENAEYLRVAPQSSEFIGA
T8 sequence (P00533 with tags, fused parts or gaps DEL746-750/C797S limits assumed): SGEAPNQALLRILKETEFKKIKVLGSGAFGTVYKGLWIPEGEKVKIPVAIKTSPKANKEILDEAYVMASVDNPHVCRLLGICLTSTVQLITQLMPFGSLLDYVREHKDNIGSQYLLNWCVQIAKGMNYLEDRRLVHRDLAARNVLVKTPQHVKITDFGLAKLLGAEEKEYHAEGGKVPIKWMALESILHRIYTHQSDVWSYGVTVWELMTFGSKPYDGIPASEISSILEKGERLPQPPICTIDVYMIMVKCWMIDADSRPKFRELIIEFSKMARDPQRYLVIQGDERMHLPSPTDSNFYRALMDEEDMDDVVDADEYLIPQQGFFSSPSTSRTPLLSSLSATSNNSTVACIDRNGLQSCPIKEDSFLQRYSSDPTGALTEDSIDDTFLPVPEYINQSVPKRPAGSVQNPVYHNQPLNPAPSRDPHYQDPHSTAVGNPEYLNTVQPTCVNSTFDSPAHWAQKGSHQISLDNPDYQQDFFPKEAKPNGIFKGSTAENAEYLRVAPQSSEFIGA
T3 sequence (P00533 25-1210 T790M/L858R): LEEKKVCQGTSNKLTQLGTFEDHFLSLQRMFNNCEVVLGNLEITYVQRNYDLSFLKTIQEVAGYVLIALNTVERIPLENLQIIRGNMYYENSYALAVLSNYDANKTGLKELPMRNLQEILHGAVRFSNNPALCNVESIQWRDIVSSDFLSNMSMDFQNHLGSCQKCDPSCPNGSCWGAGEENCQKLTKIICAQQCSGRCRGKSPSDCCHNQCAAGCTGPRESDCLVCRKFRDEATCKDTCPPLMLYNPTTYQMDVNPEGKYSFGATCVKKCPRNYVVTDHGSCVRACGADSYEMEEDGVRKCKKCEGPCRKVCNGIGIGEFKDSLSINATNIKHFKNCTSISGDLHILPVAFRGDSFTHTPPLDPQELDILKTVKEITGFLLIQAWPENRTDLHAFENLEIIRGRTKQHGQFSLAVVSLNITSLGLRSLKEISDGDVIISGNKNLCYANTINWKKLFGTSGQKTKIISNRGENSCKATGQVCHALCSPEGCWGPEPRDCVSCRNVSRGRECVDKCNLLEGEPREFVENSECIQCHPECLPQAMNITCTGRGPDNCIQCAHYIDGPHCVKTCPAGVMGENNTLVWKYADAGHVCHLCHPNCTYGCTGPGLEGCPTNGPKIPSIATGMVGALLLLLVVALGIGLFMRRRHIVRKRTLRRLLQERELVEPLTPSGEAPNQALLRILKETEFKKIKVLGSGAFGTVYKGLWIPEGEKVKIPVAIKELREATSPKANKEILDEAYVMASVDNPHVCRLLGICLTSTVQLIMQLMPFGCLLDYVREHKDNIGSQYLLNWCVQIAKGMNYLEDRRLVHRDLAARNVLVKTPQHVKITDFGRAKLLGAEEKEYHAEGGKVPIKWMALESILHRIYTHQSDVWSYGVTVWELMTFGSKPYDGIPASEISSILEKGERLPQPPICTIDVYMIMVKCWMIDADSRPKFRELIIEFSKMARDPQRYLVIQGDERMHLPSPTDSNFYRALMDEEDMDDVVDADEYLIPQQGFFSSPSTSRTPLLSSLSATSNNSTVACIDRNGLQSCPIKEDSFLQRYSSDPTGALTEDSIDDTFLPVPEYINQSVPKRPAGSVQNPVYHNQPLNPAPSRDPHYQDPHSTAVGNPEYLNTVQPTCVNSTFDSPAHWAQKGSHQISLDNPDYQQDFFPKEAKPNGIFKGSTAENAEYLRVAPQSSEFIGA
T9 sequence (P00533 25-1210 C797S/L858R): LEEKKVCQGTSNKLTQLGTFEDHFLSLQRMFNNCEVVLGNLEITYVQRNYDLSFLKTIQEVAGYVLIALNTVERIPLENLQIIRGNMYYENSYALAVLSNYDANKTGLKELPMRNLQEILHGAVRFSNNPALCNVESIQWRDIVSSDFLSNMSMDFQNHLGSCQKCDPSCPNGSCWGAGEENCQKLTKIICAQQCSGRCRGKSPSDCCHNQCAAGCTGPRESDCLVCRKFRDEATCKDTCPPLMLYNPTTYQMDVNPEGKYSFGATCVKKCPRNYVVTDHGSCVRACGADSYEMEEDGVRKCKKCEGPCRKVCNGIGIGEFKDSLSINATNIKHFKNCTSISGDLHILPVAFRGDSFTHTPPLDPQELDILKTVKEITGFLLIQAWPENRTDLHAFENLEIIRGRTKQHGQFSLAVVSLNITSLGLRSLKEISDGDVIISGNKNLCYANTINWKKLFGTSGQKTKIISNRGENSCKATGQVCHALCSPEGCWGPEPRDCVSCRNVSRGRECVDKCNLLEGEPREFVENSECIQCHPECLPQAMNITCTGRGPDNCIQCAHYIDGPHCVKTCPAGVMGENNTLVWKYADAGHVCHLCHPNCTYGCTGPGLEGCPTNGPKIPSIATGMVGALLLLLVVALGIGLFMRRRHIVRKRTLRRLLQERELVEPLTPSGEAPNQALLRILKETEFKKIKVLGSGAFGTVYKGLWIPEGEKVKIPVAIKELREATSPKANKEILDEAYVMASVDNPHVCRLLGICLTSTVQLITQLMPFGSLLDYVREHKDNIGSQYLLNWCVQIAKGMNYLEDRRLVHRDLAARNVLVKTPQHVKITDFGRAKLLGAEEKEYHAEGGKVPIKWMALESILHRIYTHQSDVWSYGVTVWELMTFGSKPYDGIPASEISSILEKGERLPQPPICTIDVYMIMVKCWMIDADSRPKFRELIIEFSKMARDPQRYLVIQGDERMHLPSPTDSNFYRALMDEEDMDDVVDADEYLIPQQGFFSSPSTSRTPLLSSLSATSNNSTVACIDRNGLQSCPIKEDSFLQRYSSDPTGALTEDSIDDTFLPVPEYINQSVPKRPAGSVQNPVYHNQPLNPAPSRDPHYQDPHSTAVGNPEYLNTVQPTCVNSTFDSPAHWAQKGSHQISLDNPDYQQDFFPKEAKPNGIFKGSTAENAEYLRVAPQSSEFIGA
T5 sequence (P00533 with tags, fused parts or gaps DEL746-750/T790M limits assumed): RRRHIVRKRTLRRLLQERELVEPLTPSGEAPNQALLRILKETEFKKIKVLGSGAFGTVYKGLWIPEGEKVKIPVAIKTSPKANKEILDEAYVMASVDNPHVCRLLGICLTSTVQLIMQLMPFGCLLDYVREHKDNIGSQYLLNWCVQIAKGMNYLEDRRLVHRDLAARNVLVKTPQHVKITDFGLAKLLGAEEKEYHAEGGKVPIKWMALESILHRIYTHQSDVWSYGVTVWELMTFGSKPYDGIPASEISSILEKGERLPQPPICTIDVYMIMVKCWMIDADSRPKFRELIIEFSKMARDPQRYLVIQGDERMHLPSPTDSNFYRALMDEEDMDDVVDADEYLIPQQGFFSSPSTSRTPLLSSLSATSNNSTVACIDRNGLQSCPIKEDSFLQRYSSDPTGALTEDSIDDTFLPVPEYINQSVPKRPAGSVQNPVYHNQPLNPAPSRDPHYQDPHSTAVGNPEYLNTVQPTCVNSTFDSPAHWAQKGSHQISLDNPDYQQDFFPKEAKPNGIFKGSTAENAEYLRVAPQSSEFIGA
T7 sequence (P00533 with tags, fused parts or gaps DEL746-750/T790M/C797S limits assumed): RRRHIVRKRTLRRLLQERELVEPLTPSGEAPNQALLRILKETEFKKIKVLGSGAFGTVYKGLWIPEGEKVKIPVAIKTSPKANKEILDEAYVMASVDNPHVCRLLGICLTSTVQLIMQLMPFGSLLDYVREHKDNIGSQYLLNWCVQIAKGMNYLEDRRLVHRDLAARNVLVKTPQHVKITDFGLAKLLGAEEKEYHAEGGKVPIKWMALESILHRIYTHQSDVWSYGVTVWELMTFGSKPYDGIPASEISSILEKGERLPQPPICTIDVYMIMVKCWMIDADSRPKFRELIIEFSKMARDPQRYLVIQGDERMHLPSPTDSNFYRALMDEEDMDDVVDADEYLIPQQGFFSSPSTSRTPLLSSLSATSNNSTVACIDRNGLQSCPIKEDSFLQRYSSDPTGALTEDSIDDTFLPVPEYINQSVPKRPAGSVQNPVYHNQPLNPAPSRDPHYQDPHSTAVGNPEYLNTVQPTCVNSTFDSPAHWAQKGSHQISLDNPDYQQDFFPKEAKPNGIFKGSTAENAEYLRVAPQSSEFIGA

Compound	IC50 (EGFR wild type) [nM]	IC50 (EGFR L858R) [nM]	IC50 (EGFR L858R/T790M) [nM]	IC50 (EGFR Exon19Del) [nM]	IC50 (EGFR Exon19Del/T790M) [nM]	IC50 (EGFR[T790M/C797S/L858R]) [nM]	IC50 [1] [nM]	IC50 (EGFR (d746-750 C797S)) [nM]	IC50 (EGFR (C797S L858R)) [nM]	GI50 [2, 3] [nM]	GI50 [2, 4] [nM]	GI50 [2, 5] [nM]	GI50 [2, 6] [nM]	GI50 [2, 7] [nM]	GI50 [2, 8] [nM]	GI50 [2, 9] [nM]	GI50 (PC-9) [nM]	GI50 (A-431; [10]) [nM]	GI50 [2, 11] [nM]	GI50 [2, 12] [nM]	also measured
CN(C)C1CCN(c2ccc3nc4n(c3c2)C23CCC(CN(CCOc5c(cnn5C)-c5cc(cn(C)c5=O)C(=O)N4)C2)C3)CC1 (single isomer, unassigned) [Example A64A]	> 5000	> 5000	> 5000	2160	> 5000	> 5000	2100	1920	> 5000	215	513	599	443	381	2100	755	546				GI50 (A-431; A-431 cells): 6130 nM
Cn1ncc2c1OCCN1CC3CCC(C3)(C1)n1c(nc3ccc(N4CCC(N5CCOCC5)C4)cc31)NC(=O)c1cc-2c(=O)n(C)c1 (single isomer, unassigned) [Example A104A]	> 5000	4680	> 5000	1280	> 5000	> 5000	> 5000	1390	> 5000	217	503	795	402	675	1000	473	568	1940			
CC1CCCCOc2c(cnn2C)-c2cc(cn(C)c2=O)C(=O)Nc2nc3ccc(N4CCN(C)CC4)cc3n21 (stereo not drawn) [Example A19, 5,12,26-Trimethyl-16-(4-methylpiperazin-1-yl)-7-oxa-4,5,13,20,22,26-hexaazapentacyclo[22.3.1.0^{2,6}.0^{13,21}.0^{14,19}]octacosa-1(28),2(6),3,14,16,18,20,24-octaene-23,27-dione]	> 5000	625	632	22	29	214	16	19	283									1340	6.6	113	GI50 [2, 13]: 147 nM; GI50 [2, 14]: 98 nM; GI50 [2, 15]: 246 nM; GI50 [2, 16]: 85 nM; GI50 [2, 17]: 85 nM; GI50 (PC-9; Homo sapiens, PC-9, 72 h): 856 nM
C[C@@H]1CCCNc2c(cnn2C)-c2cc(cn(C)c2=O)C(=O)Nc2nc3ccc(N4CCN(C)CC4)cc3n2C1 [Example A57]	> 5000	> 5000	4530	189	112	> 5000	65	175	2650									8300	64	534	GI50 [2, 13]: 790 nM; GI50 [2, 14]: 474 nM; GI50 [2, 15]: 716 nM; GI50 [2, 16]: 356 nM; GI50 [2, 17]: 612 nM; GI50 (PC-9; Homo sapiens, PC-9, 72 h): 194 nM
CN(C)CCCN(C)c1ccc2nc3n(c2c1)C12CCC(CN(CCOc4c(cnn4C)-c4cc(cn(C)c4=O)C(=O)N3)C1)C2 (single isomer, unassigned) [Example A89B]	134	16	7.4	1.9	3.8	5.4	4	2.2	11	0.57	3.2	2.2	3.8	4.1	9.2	2.6	28				GI50 (A-431; A-431 cells): 1700 nM
C[C@@H]1CCCOc2c(cnn2C)-c2cc(cn(C)c2=O)C(=O)Nc2nc3ccc(N4CCN(C)CC4)cc3n2C1 [Example A25, (11R)-5,11,26-trimethyl-16-(4-methylpiperazin-1-yl)-7-oxa-4,5,13,20,22,26-hexaazapentacyclo[22.3.1.0^{2,6}.0^{13,21}.0^{14,19}]octacosa-1(28),2(6),3,14,16,18,20,24-octaene-23,27-dione]	323	24	2	1.6	1.6	1.6	1.6	1	6									486	1.4	13	GI50 [2, 13]: 2.4 nM; GI50 [2, 14]: 9.3 nM; GI50 [2, 15]: 5.6 nM; GI50 [2, 16]: 16 nM; GI50 [2, 17]: 9.2 nM; GI50 (PC-9; Homo sapiens, PC-9, 72 h): 12 nM
